Laboratory results published in patent publication US9782379B2, “Use of protectin DX for the stimulation of muscular IL-6 secretion” (Universite Laval, priority 2013, dated 2017).

Columns and labels:
IL-6 null (KO) mice = test: second paired saline/lipid infusion 2.5 mU/kg/min hyperinsulinemic-euglycemic clamp, IL-6 null mice; assay type: in vivo
Protocol: For the second paired lipid infusion HIE clamp study, 10 week old male B6.129S2-ll6^tmkopf/J (IL-6 KO) and control C57BL/6J (WT) mice from Jackson Labs were used. Mice from each genetic background were randomly assigned to saline-vehicle, saline-PDX, lipid-vehicle and lipid-PDX groups. The lipid-infusion clamp study was performed as described above, except the clamp was performed with a 2.5 mU·kg^−1·min^−1 insulin infusion as per^29.
To confirm the involvement of IL-6 in the beneficial effects of PDX we performed a second round of paired lipid infusion hyperinsulinemic-euglycemic clamp studies in IL-6 null (KO) mice alongside wild-type (WT) C57BL/6J control mice. Saline-infused mice treated with PDX were added to the study to ascertain whether PDX also improves glucose metabolism in insulin-sensitive mice. To ensure detection of potential differences between insulin-sensitive saline-infused animals we performed 2.5mU/kg/min rather than 4 mU/kg/min clamps.

C2C12 myotubes = test: IL-6 expression and release and AMPK phosphorylation in cultured C2C12 myotubes; assay type: cell-based
Protocol: C2C12 myoblasts were maintained in DMEM containing 10% FBS. Differentiation to myotubes was initiated by addition of DMEM containing 2% horse serum. The experiment was conducted 5 days after the addition of the differentiation media. Immediately prior to the commencement of experiments fresh media was added to the cells. Then vehicle or PDX (10, 100, and 1000 nM) was added to the appropriate wells. 30 and 120 minutes after the addition of PDX media was collected and frozen for IL-6 quantification and cells were washed in ice cold PBS. For extraction of mRNA cells were then lysed and scraped in 300 μl of RLT buffer (QIAGEN). For examination of AMPK activity cells were lysed and scraped in 200 μl of ice cold lysis buffer containing 50 mM HEPES pH7.5, 150 mM NaCl, 1 mM EGTA, 20 mM b-glycerophosphate, 1% NP40, 10 mM NaF, 2 mM Na3VO4, 1× protease inhibitor cocktail (Sigma).
Snap frozen gastrocnemius muscle and liver from mice were pulverized in liquid nitrogen then lysed overnight at 4° C. in the lysis buffer described for the C2C12 myotube experiments. Immunoblotting of myotube, macrophage, liver and muscle lysates was then performed as previously described^5. Briefly, 50 ug of protein was loaded onto a 7.5% acrylamide gel, subjected to SDS-PAGE then transferred onto nitrocellulose membranes. Membranes were then blocked and probed with the appropriate antibodies. Antibodies for p-Akt ser473, p-JNK thr183/tyr185, JNK, p-AMPK thr172, AMPK, p-STAT-3 ser727 and STAT-3 were obtained from Cell Signaling Technology (MA, USA). Antibodies for total Akt and iNOS were from Santa Cruz Biotechnology (CA, USA) and BD Transduction Laboratories™ (Canada) respectively.
RNA was extracted from C2C12 myotubes using an RNeasy® mini kit from QIAGEN. RNA from homogenized liver tissue was extracted using an RNeasy® fibrous tissue mini kit from QIAGEN. RNA was then reverse transcribed to cDNA using the high-capacity cDNA reverse transcription kit from applied biosystems. Real-time PCR for Ppargc1, Pck1, G6Pc, and GAPDH was then performed using Taqman assay on demand probes and primers from Applied Biosystems in a CFX96 real-time system from BIO-RAD. The relative expression of genes of interest was then determined by normalization to the housekeeping gene GAPDH using the comparative CT method for relative gene expression^30.
Chemokines and cytokines were quantified in macrophage media, or mouse plasma using the MILLIPLEX™ MAP mouse cytokine/chemokine kit (Millipore Corporation, MA, USA). Nitrite accumulation in media was determined by Greiss assay as previously described^25. Plasma insulin levels were assessed by RIA (Linco, MI, USA). FFA were measured using an enzymatic colorimetric assay (Wako Chemicals, VA, USA). Skeletal muscle and liver IL-6 were quantified using the mouse IL-6 ELISA kit from R&D systems. Total plasma adiponectin was determined using the ELISA from ALPCO.

T37i brown adipocytes = test: IL-6 release from cultured brown adipocytes; assay type: cell-based; settings: norepinephrine 1 μM as adrenergic stimulus
Text: Since brown adipose tissue was recently shown to regulate glucose homeostasis via secretion of IL-6^20 we also examined whether PDX might raise circulating IL-6 by stimulating brown fat.

[1] = saline and lipid-infused KO mice
[2] = highest dose, within 2 h, P<0.01

CC/C=C\C[C@H](O)/C=C/C=C\C=C\[C@@H](O)C/C=C\C/C=C\CCC(=O)O [PDX, 10S,17S-dihydroxy-docosa-4Z,7Z,11E,13Z,15E,19Z-hexaeonic acid]
activation of hepatic STAT-3 (IL-6 null (KO) mice; KO mice, saline and lipid-infused): completely absent | lipid-induced elevations in circulating TNFa (IL-6 null (KO) mice; lipid-infused IL-6 KO mice, P<0.001): potently suppress | effect on hepatic insulin action (IL-6 null (KO) mice; lipid-infused KO mice): only partially lost | effect on peripheral insulin action (IL-6 null (KO) mice; lipid-infused KO mice): completely absent | effects on suppression of Ppargc1, Pck1 and G6Pc (IL-6 null (KO) mice; lipid-infused KO mice): entirely absent | stimulatory effect on AMPK phosphorylation (muscle) (IL-6 null (KO) mice; lipid-infused KO mice): fully maintained | IL-6 in skeletal muscle (IL-6 null (KO) mice; [1]): failed to raise | effect on pre-clamp glycemia (IL-6 null (KO) mice; [1]): completely absent | enhancement of GIR (IL-6 null (KO) mice; [1]): this was not the case | effect on hepatic insulin action (IL-6 null (KO) mice; saline-infused KO mice): completely absent | effect on transcriptional repression of PEPCK (IL-6 null (KO) mice; saline-infused KO mice): completely absent | improved suppression of G6Pc (IL-6 null (KO) mice; saline-infused KO mice): this was not the case | IL-6 release from muscle cells (C2C12 myotubes; 100 nM of each lipid mediator vs vehicle): prompted IL-6 release | AMPK phosphorylation (C2C12 myotubes; 30 minutes): promotes AMPK phosphorylation | IL-6 release in the media (C2C12 myotubes; 30 minutes): no IL-6 release can be detected | phosphorylation of AMPK (C2C12 myotubes; 2 h, P<0.05): detected | increase in IL-6 mRNA expression (C2C12 myotubes; [2]): more than 2 fold | increase in IL-6 secretion (accumulation in media) (C2C12 myotubes; [2]): more than 2 fold | release of IL-6 (T37i brown adipocytes): not able to stimulate
